As a reminder, the IC50 is the concentration that gives 50% inhibition. Usually Km stands for the substrate concentration at which the rate is half of its maximum. For orientation: kcat means the number of substrate molecules converted per active site and unit of time at saturation. The kcat/Km is the second-order rate constant that governs catalysis at low substrate concentration.

These results are taken from publication PMC8808168, “Enzymatic and structural characterization of HAD5, an essential phosphomannomutase of malaria-causing parasites” (The Journal of Biological Chemistry, 2021).

One data set deals with T1, HsPMM1 (Homo sapiens, UniProt Q92871).
T1 construct: gene PMM1; pET28a, His-tag cut with thrombin; E. coli BL21 Gold (DE3)
T1 sequence (Q92871 2-262): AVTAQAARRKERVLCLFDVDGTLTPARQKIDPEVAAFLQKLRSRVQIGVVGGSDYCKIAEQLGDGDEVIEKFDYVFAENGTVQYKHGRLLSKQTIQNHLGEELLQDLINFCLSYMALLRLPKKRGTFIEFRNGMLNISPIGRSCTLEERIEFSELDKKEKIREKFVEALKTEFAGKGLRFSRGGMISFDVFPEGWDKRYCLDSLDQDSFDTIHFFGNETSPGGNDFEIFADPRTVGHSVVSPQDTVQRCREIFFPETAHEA
The data set is described as follows: coupled PGM assay (G6PDH, NADPH at […] nm). It counts as biochemical. The settings on record: 1 mM glucose 1-phosphate, 10 μM G-1,6-P, 1 mM MgCl2, pH 7.5, room temperature, 133 nM enzyme.

Another data set has as its target T2, HsPMM2 (Homo sapiens, UniProt O15305).
T2 construct: gene PMM2; pET28a, His-tag cut with thrombin; E. coli BL21 Gold (DE3)
T2 sequence (O15305 2-246): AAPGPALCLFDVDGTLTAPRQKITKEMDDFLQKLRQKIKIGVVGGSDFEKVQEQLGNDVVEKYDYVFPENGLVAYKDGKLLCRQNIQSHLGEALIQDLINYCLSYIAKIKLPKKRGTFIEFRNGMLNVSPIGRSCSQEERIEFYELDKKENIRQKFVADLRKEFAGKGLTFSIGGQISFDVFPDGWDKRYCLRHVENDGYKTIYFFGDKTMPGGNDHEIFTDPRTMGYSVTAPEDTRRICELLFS
The data set can be described thus: coupled PGM assay (G6PDH, NADPH at […] nm). Conditions: 1 mM glucose 1-phosphate, 10 μM G-1,6-P, 1 mM MgCl2, pH 7.5, room temperature, 65 nM enzyme. It counts as biochemical.

The next data set concerns the target T3, HAD5 (PfHAD5) (Plasmodium falciparum, UniProt Q8IJM5).
T3 construct: gene PF3D7_1017400; pET28a, N-terminal His-tag cut with thrombin; E. coli BL21 Gold (DE3); size-exclusion purified
T3 sequence (Q8IJM5 1-244): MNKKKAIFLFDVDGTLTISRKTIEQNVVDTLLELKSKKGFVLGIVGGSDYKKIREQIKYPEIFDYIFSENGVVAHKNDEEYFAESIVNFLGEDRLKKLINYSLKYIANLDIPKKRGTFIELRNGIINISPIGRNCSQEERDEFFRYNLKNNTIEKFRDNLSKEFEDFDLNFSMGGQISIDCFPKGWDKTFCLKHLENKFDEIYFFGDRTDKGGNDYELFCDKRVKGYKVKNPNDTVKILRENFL
The data set is described as follows: linked PMM assay, activation. Conditions: 12.5 μM G-1,6-P, 1 mM mannose 6-phosphate, pH 7.5, room temperature; activator. It counts as biochemical.

Substrate in the data set “purified protein”: O=P(O)(O)O[C@H]1O[C@H](CO)[C@@H](O)[C@H](O)[C@H]1O
The data set can be described thus: purified protein. The settings on record: G1P to G6P, 10 μM G-1,6-P, 0.75 mM NADP+, 25 mM Tris-HCl, 25 mM NaCl, 1 mM MgCl2, pH 7.5, room temperature.

For `O=P(O)(O)C[C@H]1O[C@H](CNO)[C@@H](O)[C@H](O)[C@H]1O` [D9, compound D9], the values for the half-inhibitory concentration (IC50) at HsPMM1 and on HsPMM2 were 895 ± 66 µM and 413 ± 41 µM, respectively.
For the molecule `O=P(O)(O)OC[C@H]1O[C@H](OP(=O)(O)O)[C@H](O)[C@@H](O)[C@@H]1O` [glucose-1,6-bisphosphate], the “linked PMM assay, activation” value at HAD5 (PfHAD5) was “upon addition of the known cofactor glucose-1,6-bisphosphate”.

B1: HAD5 (PfHAD5) (Plasmodium falciparum 3D7) (protein)
chain: MNKKKAIFLFDVDGTLTISRKTIEQNVVDTLLELKSKKGFVLGIVGGSDYKKIREQIKYPEIFDYIFSENGVVAHKNDEEYFAESIVNFLGEDRLKKLINYSLKYIANLDIPKKRGTFIELRNGIINISPIGRNCSQEERDEFFRYNLKNNTIEKFRDNLSKEFEDFDLNFSMGGQISIDCFPKGWDKTFCLKHLENKFDEIYFFGDRTDKGGNDYELFCDKRVKGYKVKNPNDTVKILRENFL
For B1, in “purified protein”, the Michaelis constant (Km) was 5.2 ± 1.4 µM, the turnover number (kcat) came out at 7.8e-06 ± 1.2e-06 s⁻¹ and the kcat/Km worked out at 1.5 M⁻¹ s⁻¹.
